For assay [1], the target named is T1, Alpha-2B adrenergic receptor (Homo sapiens, UniProt P18089).
T1 sequence (P18089 whole entry): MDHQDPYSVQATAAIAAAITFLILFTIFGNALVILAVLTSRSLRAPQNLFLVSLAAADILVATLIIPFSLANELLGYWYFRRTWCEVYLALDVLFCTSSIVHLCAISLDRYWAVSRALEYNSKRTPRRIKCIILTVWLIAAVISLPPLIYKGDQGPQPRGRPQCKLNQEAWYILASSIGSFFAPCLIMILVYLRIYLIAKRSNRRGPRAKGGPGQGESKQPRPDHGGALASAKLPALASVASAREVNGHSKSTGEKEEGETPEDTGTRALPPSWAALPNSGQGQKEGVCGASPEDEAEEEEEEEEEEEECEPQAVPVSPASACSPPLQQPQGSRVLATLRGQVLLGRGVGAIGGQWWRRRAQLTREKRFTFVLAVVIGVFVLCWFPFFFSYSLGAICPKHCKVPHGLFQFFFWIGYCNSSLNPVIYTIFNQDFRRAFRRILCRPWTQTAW
In words: Displacement of [3H]RS-79948-197 from human adrenoceptor aplha 2B expressed in CHO cells. Format: cell-based. Background: In a radioligand displacement assay an active substance lowers the binding of a labelled ligand.

Assay [2] deals with T2, Alpha-2C adrenergic receptor (Homo sapiens, UniProt P18825).
T2 sequence (P18825 whole entry): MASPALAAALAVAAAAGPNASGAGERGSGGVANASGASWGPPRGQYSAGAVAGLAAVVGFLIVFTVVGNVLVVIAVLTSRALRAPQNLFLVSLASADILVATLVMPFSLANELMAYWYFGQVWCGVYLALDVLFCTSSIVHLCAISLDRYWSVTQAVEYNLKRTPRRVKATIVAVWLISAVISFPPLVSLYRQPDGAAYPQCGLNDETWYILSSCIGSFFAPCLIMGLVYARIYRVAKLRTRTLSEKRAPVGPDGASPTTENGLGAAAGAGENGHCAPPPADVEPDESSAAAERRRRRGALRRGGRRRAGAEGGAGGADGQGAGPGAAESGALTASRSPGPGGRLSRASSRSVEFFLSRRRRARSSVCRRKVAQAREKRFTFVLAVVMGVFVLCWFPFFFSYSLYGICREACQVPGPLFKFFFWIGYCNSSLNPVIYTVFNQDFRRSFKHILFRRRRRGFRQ
In words: Displacement of [3H]RS-79948-197 from human adrenoceptor aplha 2C expressed in CHO cells. Format: cell-based.

Assay [3] deals with T3, Alpha-2B adrenergic receptor (Homo sapiens) (UniProt P18089).
T3 sequence (whole entry): T1 sequence (P18089 whole entry)
As to the kind of experiment: Intrinsic activity at human adrenoceptor aplha 2B expressed in CHO cells by cytosensor microphysiometric analysis relative to (-)-noradrenaline. Format: cell-based.

Assay [4] concerns the target T4, Alpha-2A adrenergic receptor (Homo sapiens, UniProt P08913).
T4 sequence (P08913 whole entry): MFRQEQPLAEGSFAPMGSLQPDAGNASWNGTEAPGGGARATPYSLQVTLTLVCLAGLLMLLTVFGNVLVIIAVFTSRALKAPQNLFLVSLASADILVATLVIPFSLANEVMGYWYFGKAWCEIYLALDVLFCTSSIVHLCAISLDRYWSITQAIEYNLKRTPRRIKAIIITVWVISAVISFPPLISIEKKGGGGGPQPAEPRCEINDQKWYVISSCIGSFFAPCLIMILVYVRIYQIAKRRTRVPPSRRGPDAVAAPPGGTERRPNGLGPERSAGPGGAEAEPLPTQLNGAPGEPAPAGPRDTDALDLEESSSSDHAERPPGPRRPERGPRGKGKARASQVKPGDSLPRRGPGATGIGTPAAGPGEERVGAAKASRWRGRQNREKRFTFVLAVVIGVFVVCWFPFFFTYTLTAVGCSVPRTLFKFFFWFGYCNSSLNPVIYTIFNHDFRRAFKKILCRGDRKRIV
As to the kind of experiment: Displacement of [3H]RS-79948-197 from human adrenoceptor aplha 2A expressed in CHO cells. Format: cell-based.

Assay [5] addresses T5, Alpha-2A adrenergic receptor (Homo sapiens) (UniProt P08913).
T5 sequence (whole entry): T4 sequence (P08913 whole entry)
Particulars: CHO.
Description: Antagonist activity at human adrenoceptor aplha 2A expressed in CHO cells assessed as inhibition of clonidine-induced response by cytosensor microphysiometric analysis

Assay [6] concerns the target T2, Alpha-2C adrenergic receptor. As to the kind of experiment: Agonist activity at human adrenoceptor aplha 2C expressed in CHO cells assessed as rate of extracellular acidification by cytosensor microphysiometric analysis. Format: functional, cell-based.
Assay [7] deals with T6, Alpha-2C adrenergic receptor (Homo sapiens) (UniProt P18825).
T6 sequence (whole entry): T2 sequence (P18825 whole entry)
In words: Intrinsic activity at human adrenoceptor aplha 2C expressed in CHO cells by cytosensor microphysiometric analysis relative to (-)-noradrenaline. Format: cell-based.

Assay [8] addresses T1, Alpha-2B adrenergic receptor. As to the kind of experiment: Agonist activity at human adrenoceptor aplha 2B expressed in CHO cells assessed as rate of extracellular acidification by cytosensor microphysiometric analysis. Format: functional, cell-based.
The target of assay [9] is T4, Alpha-2A adrenergic receptor. In words: Agonist activity at human adrenoceptor aplha 2A expressed in CHO cells assessed as rate of extracellular acidification by cytosensor microphysiometric analysis. Format: functional, cell-based.

Each structure is given as a SMILES string.

Usually Ki stands for the equilibrium dissociation constant of an inhibitor or competing ligand from its target. A low value points to tighter binding. What is called pKb is the negative decadic logarithm of the Kb, by convention in mol/L. Low readings indicate a large Kb, high ones a small Kb. Broadly, the EC50 is the concentration giving half of the maximal effect.

With `CC(Oc1ccccc1C(F)(F)F)C1=NCCN1` (centres undefined), the values for the Ki in assay [1], in assay [2] and in [4] were 1620 nM, 977 nM and 182 nM, respectively. The Intrinsic activity in assay [3] is 0.4; in assay [7], 0.72. In [5], the pKb was determined as 6.42. The 50% effective concentration (EC50) in assay [6] is 794 nM; in assay [8], 240 nM.
Regarding `CC(C)Oc1ccccc1OC(C)C1=NCCN1` (centres undefined), the Ki in [1] was 1580 nM; in assay [2], 398 nM; in [4], 83.2 nM. Besides, the Intrinsic activity stood at 0.5 in assay [3] and 0.7 in assay [7]. The same compound displayed a negative logarithm of the Kb (pKb) in [5] of 6.82. The values for the EC50 in assay [6] and in assay [8] were 100 nM and 1740 nM, respectively.
On to `CCc1ccccc1OC(C)C1=NCCN1` (centres undefined), for which the Ki in [1] was 282 nM; in [2], 288 nM; in assay [4] it was 24 nM. Further, the Intrinsic activity in [3] is 0.5; in assay [7], 0.6. In [5], this compound had a pKb of 6. Moreover, the EC50 in assay [6] was 100 nM; in [8], 10000 nM.
Take `CC(Oc1ccccc1OC1CC1)C1=NCCN1` (centres undefined): the results for the Ki in assay [1], in assay [2] and in assay [4] were 1050 nM, 676 nM and 83.2 nM, respectively. Moreover, the Intrinsic activity in assay [3] amounted to 0.6; in assay [7] it was 0.7. The compound also displayed a pKb in assay [5] of 6.9. Moreover, the 50% effective concentration (EC50) was 47.9 nM in assay [6] and 12900 nM in assay [8].
On to `CC(Oc1ccccc1Br)C1=NCCN1` (centres undefined), for which the inhibition constant Ki in assay [1] is 355 nM; in [2], 282 nM; in assay [4], 22.9 nM. Besides, the Intrinsic activity in [3] came to 0.4; in [7], 0.87. In assay [5], this compound came in with a pKb of 7.04. Besides, the 50% effective concentration (EC50) in assay [6] was 10 nM; in [8], 316 nM.
As for `CC(Oc1ccccc1C(C)C)C1=NCCN1` (centres undefined), the inhibitory constant (Ki) in assay [1] is 933 nM; in assay [2], 457 nM; in [4], 72.4 nM. For the same compound, the values for the Intrinsic activity in [3] and in assay [7] were 0.54 and 0.73, respectively. The negative logarithm of the Kb (pKb) in assay [5] turned out to be 6.82. For the same compound, the EC50 in [6] was 398 nM; in assay [8], 251 nM.
For the compound `C=C(C)c1ccccc1OC(C)C1=NCCN1` (centres undefined), the results for the Ki in assay [1], in [2] and in assay [4] were 871 nM, 603 nM and 72.4 nM, respectively. The Intrinsic activity in [3] came to 0.4; in assay [7], 0.71. In assay [5], this compound showed a pKb of 7. Also, the results for the EC50 in assay [6] and in assay [8] were 115 nM and 1580 nM, respectively.
Regarding `CCc1cccc(CC)c1OC(C)C1=NCCN1` (centres undefined), the Ki in assay [1] was 269 nM; in assay [2] it was 275 nM; in assay [4] it was 31.6 nM. For the same compound, the figures for the Intrinsic activity in assay [3] and in assay [7] were 0.8 and 0.65, respectively. Further, the EC50 in assay [6] was 27.5 nM; in assay [9] it was 11.7 nM; in [8], 1000 nM.
In the case of `C=COc1ccccc1OC(C)C1=NCCN1` (centres undefined), the Intrinsic activity in [3] turned out to be 0.45; in [7] it was 0.48. The compound further came in with a pKb in [5] of 5. In addition, the results for the EC50 in assay [6] and in assay [8] were 631 nM and 3160 nM, respectively.
Take `Cc1cccc(C)c1OC(C)C1=NCCN1` (centres undefined): the inhibitory constant (Ki) is 182 nM in [1], 251 nM in assay [2] and 11.7 nM in assay [4]. For the same compound, the Intrinsic activity was found to be 0.8 in [3] and 0.82 in assay [7]. Also, the EC50 in assay [6] is 27.5 nM; in assay [9] it was 18.6 nM; in assay [8], 1480 nM.
With `CC(Oc1c(-c2ccccc2)cccc1-c1ccccc1)C1=NCCN1` (centres undefined), the inhibition constant Ki is 4570 nM in assay [1], 631 nM in [2] and 490 nM in assay [4]. Further, the Intrinsic activity in [3] was found to be 0.6; in assay [7] it was 0.7. Further, the pKb in assay [5] was 8. The EC50 is 79.4 nM in assay [6] and 200 nM in assay [8].
`CC(Oc1ccccc1CC1CC1)C1=NCCN1` (centres undefined) [CYCLOMETHYLINE]: the Ki is 407 nM in [1], 275 nM in assay [2] and 36.3 nM in assay [4]. For the same compound, the Intrinsic activity in assay [3] came out at 0.7; in assay [7], 0.8. Moreover, the results for the EC50 in assay [6] and in [8] were 2 nM and 3310 nM, respectively.
For the compound `CC(Oc1ccccc1C=O)C1=NCCN1` (centres undefined), the Ki in assay [1] was 2090 nM; in [2], 8710 nM; in assay [4], 1050 nM. The Intrinsic activity in assay [3] worked out at 0.5; in assay [7], 0.6. Further, the EC50 in assay [6] is 100 nM; in assay [9], 31.6 nM; in assay [8], 316 nM.
For `CC(Oc1c(Cl)cccc1Cl)C1=NCCN1` (centres undefined) [LOFEXIDINE], the Ki is 67.6 nM in assay [1] and 69.2 nM in [2]. Besides, the Intrinsic activity in [3] and in [7] was 0.8 each time. Further, the values for the 50% effective concentration (EC50) in assay [6] and in assay [8] were 1.38 nM and 126 nM, respectively.
`CCOc1ccccc1OC(C)C1=NCCN1` (centres undefined): the inhibition constant Ki in [1] is 1320 nM; in [2] it was 759 nM; in assay [4], 97.7 nM. The Intrinsic activity in [3] worked out at 0.5; in [7], 0.45. Further, the pKb in [5] turned out to be 6.5. Besides, the EC50 in assay [6] was 10000 nM; in assay [8], 3160 nM.
Consider `CC(Oc1ccccc1S(C)(=O)=O)C1=NCCN1` (centres undefined), for which the Ki is 51300 nM in [1], 3800 nM in assay [2] and 3160 nM in assay [4]. For the same compound, the Intrinsic activity in assay [3] came out at 0.45; in assay [7], 0.6. In addition, the concentration giving a half-maximal response (EC50) in assay [6] is 316 nM; in [9] it was 562 nM; in assay [8], 10000 nM.
In the case of `C=CCc1cccc(CC=C)c1OC(C)C1=NCCN1` (centres undefined), the inhibitory constant (Ki) in assay [1] is 275 nM; in [2], 129 nM; in assay [4] it was 16.6 nM. Besides, the results for the Intrinsic activity in assay [3] and in [7] were 0.65 and 0.9, respectively. In assay [5], the pKb came out at 8.56. In addition, the EC50 was 56.2 nM in assay [6] and 501 nM in assay [8].
For `COc1ccccc1OC(C)C1=NCCN1` (centres undefined), the values for the Ki in [1], in [2] and in assay [4] were 871 nM, 832 nM and 57.5 nM, respectively. Besides, the Intrinsic activity was found to be 0.5 in assay [3] and 0.6 in assay [7]. Moreover, in assay [5], the pKb came out at 6.6. The EC50 was 9770 nM in assay [6] and 100000 nM in assay [8].
Regarding `CC(Oc1ccccc1Cl)C1=NCCN1` (centres undefined), the inhibitory constant (Ki) in assay [1] was 331 nM; in assay [2], 490 nM; in assay [4], 28.8 nM. Also, the Intrinsic activity was 0.44 in assay [3] and 0.83 in assay [7]. Moreover, in [5], the pKb came out at 7.2. Moreover, the EC50 was 166 nM in [6] and 162 nM in [8].
For `CC(=O)c1ccccc1OC(C)C1=NCCN1` (centres undefined), the inhibition constant (Ki) in assay [1] was 6170 nM; in assay [2], 7410 nM; in assay [4] it was 1020 nM. Further, the Intrinsic activity in [3] is 0.6; in assay [7], 0.65. Also, the EC50 in assay [6] is 200 nM; in assay [9] it was 63.1 nM; in assay [8], 295 nM.

For the origin of these results see ChEMBL document CHEMBL1955818, “Might the observed α(2A)-adrenoreceptor agonism or antagonism of allyphenyline analogues be ascribed to different molecular conformations?” (Bioorg Med Chem, 2012).
